We go through 2 compounds from patent publication US10093694B2, “Compounds for treating eye disorders or diseases” (Guangzhou KangRui Biological Pharmaceutical Technology Co, …, priority 2016, dated 2018).

The test system of one experiment is mouse lenses (cataract). Description: Cataract studies: dissected mouse cataract lenses incubated with compound, scored for clarity. The following applies: incubated with compound at the indicated concentrations for 4 hours at room temperature, PBS negative control showed no lens opacity change. The method, then: FIGS. 14A and 14B show cataract lenses that have been treated with Compound 1. FIG. 14A show mouse lenses (white) that were dissected from the eye and placed into phosphate buffered saline solution (PBS) overnight at 4° C. Cataract was visible in all lenses. The cataract lenses were incubated with Compound 1 at the indicated concentration for 4 hours at room temperature and then scored for clarity. […] The PBS solution served as negative control and there were no lens opacity change.
FIGS. 15A and 15B show cataract lenses that have been treated with Compound 2. FIG. 15A show mouse lenses (white) that were dissected from the eye and placed into phosphate buffered saline solution (PBS) overnight at 4° C. Cataract was visible in all lenses. The cataract lenses were incubated with Compound 2 at the indicated concentration for 4 hours at room temperature and then scored for clarity. […] The PBS solution served as negative control and there were no lens opacity change.

For the next experiment, the system named is mouse eyes (cataract). Description: Cataract studies: mouse eyes treated with eye drop solution. It is filed as in vivo. The settings on record: eye drop solution 100 μM, three times a day, 50 μl each time, 6 weeks, versus negative control. The protocol:
FIGS. 16A and 16B show the result of mouse eyes treated with an eye drop solution containing Compound 1 at 100 μM concentration three times a day for 50 μl each time for 6 weeks.

Molecules are shown by their SMILES.

In the case of `C[C@H](CCC(Br)C(C)(C)O)[C@H]1CC[C@@]2(C)C3=C(CC[C@]12C)[C@@]1(C)CC[C@H](O)C(C)(C)[C@@H]1CC3` (stereo partly drawn) [Compound 1, (3S,5R,10S,13R,14R,17R)-17-((2R)-5-bromo-6-hydroxy-6-methylheptan-2-yl)-4,4,10,13,14-pentamethyl-2,3,4,5,6,7,10,11,12,13,14,15,16,17-tetradecahydro-1H-cyclopenta[a]phenanthren-3-ol], the “lens clarity / cataract after treatment” value in the experiment on mouse lenses (cataract) was “Increased lens clarity and reduced cataract”. Besides, in the experiment with mouse eyes (cataract), the “clarity / cataract of treated eye” value is “increased clarity and reduced cataract”.

In the case of `C[C@H](CCCC(C)(C)O)[C@H]1CC[C@@]2(C)C3=C(CC[C@]12C)[C@@]1(C)CC[C@H](O)C(C)(C)[C@@H]1CC3` [Compound 2, (3S,5R,10S,13R,14R,17R)-17-((R)-6-hydroxy-6-methylheptan-2-yl)-4,4,10,13,14-pentamethyl-2,3,4,5,6,7,10,11,12,13,14,15,16,17-tetradecahydro-1H-cyclopenta[a]phenanthren-3-ol], the “lens clarity / cataract after treatment” value in the experiment on mouse lenses (cataract) is “Increased lens clarity and reduced cataract”.
